Data as given in patent publication US6833377B2, “Composition and method for potentiating drugs” (priority 2001, dated 2004).
Several values for one entry are separate records, joined by “and”; a condition that tells them apart may be missing. Equal entries are not always repeated. Where two headings read alike, the source gives them in different places.

Legend:
low-active rats = assay: Porsolt's test, low-active rats; assay type: in vivo; conditions: drug alone
Experimental: (§1) Antidepressive effects was studied by Porsolt's test [Porsolt R. D., Anton G., Blavet N., Jalfre M. Eur. J. Pharmacol.(1978), 47(4):379-91]. For each rat under study, the total immobilization time was determined during 10 min of forced swimming in a glass vessel at a water temperature of 22° C. The animals were subdivided into three groups according to their immobilization time: highly-, medium- and low-active (immobilization time below 80 sec. 100-140 sec and above 150 sec, respectively).
(§2) I. N., Kryzhanovskii G. N. Biull. Eksp. Biol. Med. (1995) 120(8): 160-3] 30 min before testing at a dose of 15 mg/kg. […] (60 min before a repeated examination in Porsolt's test), and also to low-active rats 30 min. before a repeated study in Porsolt's test.
(§3) To determine the degree of potentiation of the effect of antidepressants, their minimal effective dose within the compositions, which caused a maximal antidepressive effect (immobilization time—below 80 s) in low-active rats and in rats with MPTP-depression was determined.

[1] = tested on: behavioral depression caused by a toxic dose of MPTP; assay: Forced swimming test after a toxic dose of MPTP (30 mg/kg IM); assay type: in vivo, rats
Experimental: In a forced swimming test, the ability of amitriptyline and its compositions to eliminate the effect of toxic doses of MPTP was studied. Single administration of high MPTP doses (30 mg/kg) causes acute suppression of motor activity (akinesis), catalepsy, and muscular rigidity. Antidepressants reduce behavioral depression caused by a single administration of toxic doses of MPTP. The behavioral depression was studied in a forced swimming test of a group of active rats after the administration of a toxic dose of MPTP (30 mg/kg IM). Swimming duration (maximal swimming duration—10 min) and the time of forced immobilization during the first 5 min of swimming (under the condition that swimming duration exceeds 5 min) was estimated in the forced swimming test 30 min after MPTP administration. Drugs were administered IM or IG 30 min before MPTP administration.
To estimate the potentiation of the effects of amitriptyline (its ability to reduce toxic effects of MPTP), the minimal effective dose of amitriptyline in the composition, which increased swimming time up to 9-10 min and reduced immobilization time during the first 5 min of swimming down to 20-30 sec was determined.

[2] = tested on: rats with MPTP-depression; assay: Porsolt's test, rats with MPTP depression (MPTP 15 mg/kg IM); assay type: in vivo; conditions: drug alone
Experimental: as §1, §2, §3

[3] = tested on: pentylenetetrazole seizures; conditions: diazepam alone, pentylenetetrazole 70 mg/kg
Experimental: (§4) For these studies, solutions of the composition of the invention were used, which. were prepared using distilled water immediately before administration. The solutions were administered either orally (IG), by a rigid metal probe into the cardiac section of the stomach at a total amount of 0.8 ml, or intramuscularly (IM) at an amount of 0.2 ml, 30 min before testing.
Anticonvulsive effects of drugs and their compositions was studied on the model of pentetrazole seizures [Parsons C. G . Quack G., Bresink I., Baran L., Przegalinski F., Kostowski. W., Krzascik P., Hartmann. S., Danysz W. Neuropharmacology (1995) 34(10):1239-1258).
To estimate the potentiation of diazepam effect, its minimal effective dose in the composition preventing clonico-tonic and clonic seizures in 80% of rats was determined.

reflex of tail flicking = assay: Tail-flick test (analgesic effect); assay type: in vivo, rats; conditions: IG; drug alone
Experimental: as §4
The analgesic effect of the components was estimated by an extension of the latent period of the reflex of tail flicking in the “tail-flick” test [Woolf C. J., Barret G. D., Mitchel D., Myers R. A. (1977) Eur. J. Pharmacol. 45(3);311-314] and of the reflex of hind leg flicking in the hyperalgesia test [Coderre T. J., Melzack R. Brain Res. (1987) 404(1-2):95-106].
For the “tail-flick” test, hyperalgesic rats were selected (latent period of tail flicking on placing into water with a temperature of 51° C. was 3-4 sec).

[4] = IG, amitriptyline 30 mg/kg, alone or with phenylephrine 0.004 mg/kg
[5] = IM, amitriptyline 30 mg/kg, alone or with phenylephrine 0.002 mg/kg (text b94: 0.003)

## CN(C)CCC=C1c2ccccc2CCc2ccccc21 [Amitriptyline, amitriptyline]
low-active rats; IG
  Minimal effective dose of the antidepressant causing a maximal antidepressive effect (immobilization time below 80 sec), low-active rats: 2.0 ± 0.24 mg/kg
low-active rats; IG, listed as amitriptyline
  Minimal effective dose of the antidepressant causing a maximal antidepressive effect (immobilization time below 80 sec), low-active rats: 2 mg/kg
low-active rats; IM
  Minimal effective dose of the antidepressant causing a maximal antidepressive effect (immobilization time below 80 sec), low-active rats: 5.2 ± 0.6 mg/kg
low-active rats; IM, listed as amitriptyline
  Minimal effective dose of the antidepressant causing a maximal antidepressive effect (immobilization time below 80 sec), low-active rats: 5.0 mg/kg
[1]; [4]
  Duration of forced swimming until drowning 30 min after MPTP 30 mg/kg (maximal recorded time 600 seconds): 340 s and 340 ± 37 s
  Immobilization time during the first 5 minutes of forced swimming, 30 min after MPTP 30 mg/kg: 78 s and 78 ± 8.5 s
[1]; IM, amitriptyline 20 mg/kg
  Duration of forced swimming until drowning 30 min after MPTP 30 mg/kg (maximal recorded time 600 seconds): 220 ± 25 s
[1]; [5]
  Duration of forced swimming until drowning 30 min after MPTP 30 mg/kg (maximal recorded time 600 seconds): 410 s and 410 ± 46 s
  Immobilization time during the first 5 minutes of forced swimming, 30 min after MPTP 30 mg/kg: 61 s and 61 ± 6.3 s
[2]; IG
  Minimal effective dose of the antidepressant causing a maximal antidepressive effect (immobilization time below 80 sec), highly active rats with MPTP depression: 2.5 ± 0.5 mg/kg
[2]; IG, listed as amitriptyline
  Minimal effective dose of the antidepressant causing a maximal antidepressive effect (immobilization time below 80 sec), highly active rats with MPTP depression: 2.5 mg/kg
[2]; IM
  Minimal effective dose of the antidepressant causing a maximal antidepressive effect (immobilization time below 80 sec), highly active rats with MPTP depression: 7.0 ± 0.8 mg/kg
[2]; IM, listed as amitriptyline
  Minimal effective dose of the antidepressant causing a maximal antidepressive effect (immobilization time below 80 sec), highly active rats with MPTP depression: 7.2 mg/kg

## CN1C(=O)CN=C(c2ccccc2)c2cc(Cl)ccc21 [Diazepam]
[3]; IG
  Minimal dose of diazepam preventing clonico-tonic pentylenetetrazol seizures in 80% of rats: 2.5 mg/kg and 2.5 ± 0.3 mg/kg
[3]; IM
  Minimal dose of diazepam preventing clonico-tonic pentylenetetrazol seizures in 80% of rats: 6.7 mg/kg and 6.7 ± 0.7 mg/kg

## Cc1c(N(C)CS(=O)(=O)[O-])c(=O)n(-c2ccccc2)n1C.[Na+] [Dipyrone]
Reflex of tail flicking
  Minimal effective dose of the analgesic causing maximal analgesia in tail-flick test (latent period of tail flicking reflex more than 30 sec): 20 mg/kg and 20 ± 2.3 mg/kg

## CNCCC(Oc1ccc(C(F)(F)F)cc1)c1ccccc1 (stereo not shown) [Fluoxetine]
low-active rats; IG
  Minimal effective dose of the antidepressant causing a maximal antidepressive effect (immobilization time below 80 sec), low-active rats: 5.5 mg/kg and 5.5 ± 0.7 mg/kg
low-active rats; IM
  Minimal effective dose of the antidepressant causing a maximal antidepressive effect (immobilization time below 80 sec), low-active rats: 10.6 mg/kg and 10.6 ± 1.2 mg/kg
[2]; IM
  Minimal effective dose of the antidepressant causing a maximal antidepressive effect (immobilization time below 80 sec), highly active rats with MPTP depression: 16.2 mg/kg and 16 ± 2.1 mg/kg
